Measured values: PubChem BioAssay (NCI)
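Results reflect a 48-hour exposure of cells in 96-well plates to compound at five concentrations. Here, GI50 denotes the concentration required for 50% inhibition of growth. Definition used: TGI = concentration required for complete inhibition of growth.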

What follows are compounds tested on T-47D breast (assay: NCI-60 cell line screen, 48 h).

SMILES | TGI [µM] | GI50 [µM]
CCCNC(=O)OCc1c(COC(=O)NCCC)c(-c2ccc(Cl)c(Cl)c2)n2c1CCC2 | > 100 | –
N#Cc1nc(-c2ccc(F)cc2)oc1S(=O)(=O)N1CCOCC1 | 5.23 | 2.11
Cc1c(Cl)cccc1Nc1ncccc1C(=O)O | > 100 | 68
Fc1ccc(-c2nn(-c3ccccc3)cc2-c2nc3ccccc3o2)cc1 | > 100 | 37.3
CN=C1NC(=O)/C(=C/c2ccc3ncccc3c2)S1 | 24.4 | 5.24
COc1ccc(CN2CCCC(C(=O)c3ccc(C(F)(F)F)cc3)C2)c(O)c1 (centres undefined) | 80.1 | 22.1
CC1=C2[C@@H](CC1)[C@]1(C)O[C@@](C(C)C)(C[C@H]1OC(=O)[C@H](C)O)[C@H]2OC(=O)/C=C/c1ccccc1 | 22.4 | 5.38
O=C(Cc1ccc(/C=C/C(=O)c2ncc[nH]2)cc1)Nc1ccc(Cl)cc1 | 16.2 | 3.24
S=C1NCCN1C1=Nc2ccccc2CO1 | > 100 | 73.5
COC(=O)c1c2c(c(C)[n+]([O-])c1C)C(=O)C=CC2=O | 7.26 | 1.97
C[C@@H]1Cc2c([nH]c3ccccc23)[C@@H](c2c(F)cc(/C=C/C(=O)O)cc2F)N1CC(C)(C)F | 51.3 | 0.0916
Cn1c(-c2nonc2N)nc2cnccc21 | > 25 | > 25
NS(=O)(=O)c1ccc(-n2nc(-c3ccc(Br)cc3)ccc2=O)cc1 | > 10 | > 10
Cn1cc(C2=C(c3ccc(OC[C@@H](O)CO)cc3)C(=O)NC2=O)c2ccccc21 | > 25 | > 25
CCOC(=O)c1cc(-c2ccc([N+](=O)[O-])cc2)n(-c2ccc(C(=O)O)c(O)c2)c1C | 11.4 | 2.81
CCCCCCCCCCCCOC1C(CNCC2OC3OC(C)(C)OC3C2NC(=O)Nc2ccc(C(=O)OCC)cc2)OC2OC(C)(C)OC21 (centres undefined) | 7.1 | 2.68
CCN1CCN(c2nc(NCCNc3ccnc4cc(Cl)ccc34)c3ccccc3n2)CC1 | 4.42 | 1.92
N#Cc1c(O)c2c(c(O)c1C#N)C(=O)c1ccccc1C2=O | 9.2 | 2.71
Cc1c(N2C(=O)/C(=C\c3ccccc3O)N=C2c2ccccc2)c(=O)n(-c2ccccc2)n1C | > 100 | 16.3
CNC(=O)c1cc(Oc2ccc3c(c2)sc2nc(-c4ccc(N)cc4)cn23)ccn1 | 57.6 | 0.397

Each compound was assayed on PC-3 prostate (assay: NCI-60 cell line screen, 48 h).

SMILES | TGI [µM] | GI50 [µM]
CCCNC(=O)OCc1c(COC(=O)NCCC)c(-c2ccc(Cl)c(Cl)c2)n2c1CCC2 | 28.4 | –
N#Cc1nc(-c2ccc(F)cc2)oc1S(=O)(=O)N1CCOCC1 | 26.9 | 11.6
Cc1c(Cl)cccc1Nc1ncccc1C(=O)O | > 100 | 52.3
Fc1ccc(-c2nn(-c3ccccc3)cc2-c2nc3ccccc3o2)cc1 | > 100 | 0.491
CN=C1NC(=O)/C(=C/c2ccc3ncccc3c2)S1 | > 25 | 13.8
COc1nc2c(cc1S(=O)(=O)c1ccccc1)CCc1c-2cnn1-c1ccccc1Cl | > 100 | 3.09
COc1ccc(CN2CCCC(C(=O)c3ccc(C(F)(F)F)cc3)C2)c(O)c1 (centres undefined) | > 100 | 26.3
CC1=C2[C@@H](CC1)[C@]1(C)O[C@@](C(C)C)(C[C@H]1OC(=O)[C@H](C)O)[C@H]2OC(=O)/C=C/c1ccccc1 | 19.1 | 4.46
O=C(Cc1ccc(/C=C/C(=O)c2ncc[nH]2)cc1)Nc1ccc(Cl)cc1 | 7.45 | 2.39
S=C1NCCN1C1=Nc2ccccc2CO1 | > 100 | > 100
C[C@@H]1Cc2c([nH]c3ccccc23)[C@@H](c2c(F)cc(/C=C/C(=O)O)cc2F)N1CC(C)(C)F | 27.4 | 10.2
Cn1c(-c2nonc2N)nc2cnccc21 | > 25 | > 25
NS(=O)(=O)c1ccc(-n2nc(-c3ccc(Br)cc3)ccc2=O)cc1 | > 10 | > 10
Cn1cc(C2=C(c3ccc(OC[C@@H](O)CO)cc3)C(=O)NC2=O)c2ccccc21 | > 25 | > 25
CCOC(=O)c1cc(-c2ccc([N+](=O)[O-])cc2)n(-c2ccc(C(=O)O)c(O)c2)c1C | 18.8 | 2.96
CCCCCCCCCCCCOC1C(CNCC2OC3OC(C)(C)OC3C2NC(=O)Nc2ccc(C(=O)OCC)cc2)OC2OC(C)(C)OC21 (centres undefined) | 4.39 | 2.21
CCN1CCN(c2nc(NCCNc3ccnc4cc(Cl)ccc34)c3ccccc3n2)CC1 | 15.7 | 2.4
N#Cc1c(O)c2c(c(O)c1C#N)C(=O)c1ccccc1C2=O | 7.01 | 1.57
Cc1c(N2C(=O)/C(=C\c3ccccc3O)N=C2c2ccccc2)c(=O)n(-c2ccccc2)n1C | > 100 | > 100
CNC(=O)c1cc(Oc2ccc3c(c2)sc2nc(-c4ccc(N)cc4)cn23)ccn1 | > 100 | 0.324

These compounds were tested on BT-549 breast (assay: NCI-60 cell line screen, 48 h).

SMILES | TGI [µM] | GI50 [µM]
CCCNC(=O)OCc1c(COC(=O)NCCC)c(-c2ccc(Cl)c(Cl)c2)n2c1CCC2 | 15.9 | –
N#Cc1nc(-c2ccc(F)cc2)oc1S(=O)(=O)N1CCOCC1 | 23 | 10.8
Cc1c(Cl)cccc1Nc1ncccc1C(=O)O | > 100 | 61.2
Fc1ccc(-c2nn(-c3ccccc3)cc2-c2nc3ccccc3o2)cc1 | 21.4 | 2.97
CN=C1NC(=O)/C(=C/c2ccc3ncccc3c2)S1 | > 23 | 6.12
COc1nc2c(cc1S(=O)(=O)c1ccccc1)CCc1c-2cnn1-c1ccccc1Cl | > 100 | 3.49
COc1ccc(CN2CCCC(C(=O)c3ccc(C(F)(F)F)cc3)C2)c(O)c1 (centres undefined) | 71.9 | 24.3
CC1=C2[C@@H](CC1)[C@]1(C)O[C@@](C(C)C)(C[C@H]1OC(=O)[C@H](C)O)[C@H]2OC(=O)/C=C/c1ccccc1 | 15.7 | 0.888
O=C(Cc1ccc(/C=C/C(=O)c2ncc[nH]2)cc1)Nc1ccc(Cl)cc1 | 11.2 | 3.46
S=C1NCCN1C1=Nc2ccccc2CO1 | > 100 | > 100
COC(=O)c1c2c(c(C)[n+]([O-])c1C)C(=O)C=CC2=O | 3.14 | 1.72
C[C@@H]1Cc2c([nH]c3ccccc23)[C@@H](c2c(F)cc(/C=C/C(=O)O)cc2F)N1CC(C)(C)F | 26.3 | 11.3
Cn1c(-c2nonc2N)nc2cnccc21 | > 25 | 17.6
NS(=O)(=O)c1ccc(-n2nc(-c3ccc(Br)cc3)ccc2=O)cc1 | > 10 | > 10
Cn1cc(C2=C(c3ccc(OC[C@@H](O)CO)cc3)C(=O)NC2=O)c2ccccc21 | > 25 | > 25
CCOC(=O)c1cc(-c2ccc([N+](=O)[O-])cc2)n(-c2ccc(C(=O)O)c(O)c2)c1C | 18.1 | 3.83
CCCCCCCCCCCCOC1C(CNCC2OC3OC(C)(C)OC3C2NC(=O)Nc2ccc(C(=O)OCC)cc2)OC2OC(C)(C)OC21 (centres undefined) | 19.8 | 5.44
CCN1CCN(c2nc(NCCNc3ccnc4cc(Cl)ccc34)c3ccccc3n2)CC1 | 5.39 | 2.01
N#Cc1c(O)c2c(c(O)c1C#N)C(=O)c1ccccc1C2=O | 14.9 | 3.77
CNC(=O)c1cc(Oc2ccc3c(c2)sc2nc(-c4ccc(N)cc4)cn23)ccn1 | 51.6 | 0.5

What follows are compounds tested on MDA-MB-435 (assay: NCI-60 cell line screen, 48 h).

SMILES | TGI [µM] | GI50 [µM]
CCCNC(=O)OCc1c(COC(=O)NCCC)c(-c2ccc(Cl)c(Cl)c2)n2c1CCC2 | 29.8 | –
N#Cc1nc(-c2ccc(F)cc2)oc1S(=O)(=O)N1CCOCC1 | 6.9 | 2.38
Cc1c(Cl)cccc1Nc1ncccc1C(=O)O | > 100 | 82.9
Fc1ccc(-c2nn(-c3ccccc3)cc2-c2nc3ccccc3o2)cc1 | 3.41 | 1.79
CN=C1NC(=O)/C(=C/c2ccc3ncccc3c2)S1 | > 25 | 4.06
COc1nc2c(cc1S(=O)(=O)c1ccccc1)CCc1c-2cnn1-c1ccccc1Cl | > 100 | 8.94
COc1ccc(CN2CCCC(C(=O)c3ccc(C(F)(F)F)cc3)C2)c(O)c1 (centres undefined) | 83.3 | 23.4
CC1=C2[C@@H](CC1)[C@]1(C)O[C@@](C(C)C)(C[C@H]1OC(=O)[C@H](C)O)[C@H]2OC(=O)/C=C/c1ccccc1 | 30.9 | 15.5
O=C(Cc1ccc(/C=C/C(=O)c2ncc[nH]2)cc1)Nc1ccc(Cl)cc1 | > 25 | 4.14
S=C1NCCN1C1=Nc2ccccc2CO1 | > 100 | > 100
COC(=O)c1c2c(c(C)[n+]([O-])c1C)C(=O)C=CC2=O | 3.31 | 1.79
C[C@@H]1Cc2c([nH]c3ccccc23)[C@@H](c2c(F)cc(/C=C/C(=O)O)cc2F)N1CC(C)(C)F | 31 | 14
Cn1c(-c2nonc2N)nc2cnccc21 | > 25 | > 25
NS(=O)(=O)c1ccc(-n2nc(-c3ccc(Br)cc3)ccc2=O)cc1 | > 10 | 3.72
Cn1cc(C2=C(c3ccc(OC[C@@H](O)CO)cc3)C(=O)NC2=O)c2ccccc21 | > 25 | > 25
CCOC(=O)c1cc(-c2ccc([N+](=O)[O-])cc2)n(-c2ccc(C(=O)O)c(O)c2)c1C | 14.6 | 3.62
CCCCCCCCCCCCOC1C(CNCC2OC3OC(C)(C)OC3C2NC(=O)Nc2ccc(C(=O)OCC)cc2)OC2OC(C)(C)OC21 (centres undefined) | 3.8 | 1.9
CCN1CCN(c2nc(NCCNc3ccnc4cc(Cl)ccc34)c3ccccc3n2)CC1 | 3.14 | 1.64
Cc1c(N2C(=O)/C(=C\c3ccccc3O)N=C2c2ccccc2)c(=O)n(-c2ccccc2)n1C | > 100 | 54
